Data taken from patent publication US7838580B2, “Salts of alkyl esters of carboxyethyl(alkyl)phosphinic acid” (Clariant Finance (BVI) Limited, priority 2006, dated 2010).

Assay: Differential thermal analysis (decomposition temperature)
Type: physicochemical
Settings: ° C. for 2% weight loss
Procedure: The decomposition temperature and the average particle diameter are determined on a flame retardant of the prior art—Exolit® OP 1230.

SMILES | DTA (decomposition in differential thermal analysis) [°C]
COC(=O)CCP(C)(=O)[O-].COC(=O)CCP(C)(=O)[O-].[Ca+2] [Example 13, H3C—P(═O)(OCa1/2)—CH2—CH2—CO2CH3] | 317
COC(=O)CCP(C)(=O)[O-].COC(=O)CCP(C)(=O)[O-].[Mg+2] [Example 11, H3C—P(═O)(OMg1/2)—CH2—CH2—CO2CH3] | 282

More lines, now with the values ahead:

DTA (decomposition in differential thermal analysis) [°C] | SMILES
330 | COC(=O)CCP(C)(=O)[O-].COC(=O)CCP(C)(=O)[O-].COC(=O)CCP(C)(=O)[O-].[Al+3] [Example 10, H3C—P(═O)(OAl1/3)—CH2—CH2—CO2CH3]
323 | CCCCCCCCOC(=O)CCP(C)(=O)[O-].CCCCCCCCOC(=O)CCP(C)(=O)[O-].[Zn+2] [Example 14, H3C—P(═O)(OZn1/2)—CH2—CH2—CO2C8H17]
334 | COC(=O)CCP(C)(=O)[O-].COC(=O)CCP(C)(=O)[O-].[Zn+2] [Example 12, H3C—P(═O)(OZn1/2)—CH2—CH2—CO2CH3]
